# Read-outs that look alike come from different tables or passages of the source.
# Molecular target: T1, TACE (Homo sapiens, UniProt P78536)
# T1 construct: purchased Immunex
# Assay: Procedure for Measuring TACE Inhibition
# Format: biochemical
# Description: Using 96-well black microtiter plates, each well receives a solution composed of 10 µL TACE (Immunex, final concentration 1µg/mL), 70µL Tris buffer, pH 7.4 containing 10% glycerol (final concentration 10 mM), and 10 µL of test compound solution in DMSO (final concentration 1µM, DMSO concentration <1%) and incubated for 10 minutes at room temperature. The reaction is initiated by addition of a fluorescent peptidyl substrate (final concentration 100 µM) to each well and then shaking on a shaker for 5 sec. The reaction is read (excitation 340 nm, emission 420 nm) for 10 min. and the increase in fluorescence over time is plotted as a linear line. The slope of the line is calculated and represents the reaction rate. The linearity of the reaction rate is confirmed (r^2 >0.85). The mean (x±sem) of the control rate is calculated and compared for statistical significance (p<0.05) with drug-treated rates using Dunnett's multiple comparison test.
# [1] = read-out: TACE % inhibition at 1 micromolar
# [2] = read-out: TACE % inhibition at 1 µM, 1 µM, Examples 169-240
# [3] = Examples 169-240, read-out: TACE IC50
# T1 sequence (P78536 215-824): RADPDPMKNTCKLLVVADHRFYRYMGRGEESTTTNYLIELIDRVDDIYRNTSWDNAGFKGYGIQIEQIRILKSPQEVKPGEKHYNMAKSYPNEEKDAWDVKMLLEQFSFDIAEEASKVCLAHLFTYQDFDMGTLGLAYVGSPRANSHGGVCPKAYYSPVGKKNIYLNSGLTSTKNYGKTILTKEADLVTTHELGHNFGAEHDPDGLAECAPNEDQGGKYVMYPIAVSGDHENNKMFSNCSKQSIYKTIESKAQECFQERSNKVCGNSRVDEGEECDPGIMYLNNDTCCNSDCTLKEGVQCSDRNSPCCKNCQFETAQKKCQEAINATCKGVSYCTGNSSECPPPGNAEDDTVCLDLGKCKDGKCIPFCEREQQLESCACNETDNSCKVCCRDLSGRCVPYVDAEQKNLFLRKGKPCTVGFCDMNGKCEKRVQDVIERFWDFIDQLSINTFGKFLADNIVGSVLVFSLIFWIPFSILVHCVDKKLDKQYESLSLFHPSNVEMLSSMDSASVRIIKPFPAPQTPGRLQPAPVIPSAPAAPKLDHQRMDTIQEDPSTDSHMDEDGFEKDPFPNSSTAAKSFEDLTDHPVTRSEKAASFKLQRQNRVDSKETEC
Molecule,inhibition at 1 µM [1] [%],inhibition at 1 µM [2] [%],also measured
"2,5-Dichloro-thiophene-3-sulfonic acid 4-(1-hydroxycarbamoyl-heptylsulfinyl)-hydroxyamide [Example 236]",–,–,"TACE % inhibition at 1 µM (1 µM, Examples 169-240): 35%"
3-(1-Hydroxycarbamoyl-heptylsulfanyl)-benzoic acid hydroxyamide [Example 184],–,–,"TACE % inhibition at 1 µM (1 µM, Examples 169-240): 24.8%"
3-(1-Hydroxycarbamoyl-heptylsulfinyl)-benzoicacid hydroxyamide [Example 188],–,–,"TACE % inhibition at 1 µM (1 µM, Examples 169-240): 16.2%"
"COc1ccc([S+]([O-])C(C(=O)NO)c2ccccc2)cc1 (centres unmarked) [Example 8, N-Hydroxy-2-(4-methoxy-benzenesulfinyl)-2-phenyl-acetamide]",47,–,–
"COc1ccc(S(=O)(=O)C(Cc2ccccc2)C(=O)NO)cc1 (centres unmarked) [Example 9, N-Hydroxy-2-(4-methoxy-benzenesulfonyl)-3-phenyl-propionamide]",20.3,–,–
"COc1ccc(S(=O)(=O)C(C)(Cc2ccc(OCCN(C(C)C)C(C)C)cc2)C(=O)NO)cc1 (centres unmarked) [Example 20, N-Hydroxy-2-(4-methoxy-benzenesulfonyl)-2-methyl-3-[4-(2-N,N-diisopropylamino-ethoxy)-phenyl]-propionamide]",31,–,–
"CCN(CC)CCOc1ccc(CC(C)(C(=O)NO)S(=O)(=O)c2ccc(OC)cc2)cc1 (centres unmarked) [Example 21, N-Hydroxy-2-(4-methoxy-benzenesulfonyl)-2-methyl-3-[4-(2-N,N-diethylamino-ethoxy)-phenyl]-propionamide]",39,–,–
"COc1ccc(S(=O)(=O)C(Cc2ccc3ccccc3c2)C(=O)NO)cc1 (centres unmarked) [Example 40, N-Hydroxy-2-(4-methoxy-benzenesulfonyl)-3-naphthalen-2-yl-propionamide]",–,–,IC50 (read-out: TACE IC 50): 160 nM
"COc1ccc(CS(=O)(=O)C(C)(Cc2ccccc2)C(=O)NO)cc1 (centres unmarked) [Example 41, N-Hydroxy-2-(4-methoxy-phenylmethanesulfonyl)-2-methyl-3-phenyl propionic acid hydroxamide]",15.5,–,–
"C=CCC(CC=C)(C(=O)NO)S(=O)(=O)c1ccc(OC)cc1 [Example 58, 2-allyl-2-(4-methoxy-benzenesulfonyl)-pent-4-enoic acid hydroxyamide]",7.7,–,–
"COc1ccc(S(=O)(=O)C(C)(Cc2cccnc2)C(=O)NO)cc1 (centres unmarked) [Example 61, N-hydroxy-2-(4-methoxy-benzenesulfonyl)-2-methyl-3-pyridin-3-yl-propionamide]",17.2,–,–
"CCCCCCCCC(Cc1cccnc1)(C(=O)NO)S(=O)(=O)c1ccc(OC)cc1 (centres unmarked) [Example 62, 2-(4-Methoxy-benzenesulfonyl)-2-pyridin-3-ylmethyl-decanoic acid hydroxyamide]",–,–,IC50 (read-out: TACE IC 50): 669 nM
"CCN1CCC(C(=O)NO)(S(=O)(=O)c2ccc(OC)cc2)CC1 [Example 95, 1-Ethyl-4-(4-methoxy-benzenesulfonyl)-piperidine-4-carboxylic acid hydroxyamide]",25.4,–,–
"COc1ccc(S(=O)(=O)C2(C(=O)NO)CCN(C)CC2)cc1 [Example 97, 1-Methyl-4-(4-methoxy-benzenesulfonyl)-piperidine-4-carboxylic acid hydroxyamide]",20.2,–,–
"CCCCOc1ccc(S(=O)(=O)C2(C(=O)NO)CCN(Cc3ccc(F)cc3)CC2)cc1 [Example 100, 1-(4-Fluoro-benzyl)-4-(4-butoxy-benzenesulfonyl)-piperidine-4-carboxylic acid hydroxyamide]",39.5,–,–
"COc1ccc(CN2CCC(C(=O)NO)(S(=O)(=O)c3ccc(OC)cc3)CC2)cc1 [Example 101, 4-(4-methoxy-benzenesulfonyl)-1-(4-methoxy-benzyl)-piperidine-4-carboxylic acid hydroxyamide]",–,–,IC50 (read-out: TACE IC 50): 197 nM

Molecule,inhibition at 1 µM [1] [%],inhibition at 1 µM [2] [%],also measured
"CCCCCCC(Sc1ccc(OCCCC)cc1)C(=O)NO (centres unmarked) [Example 200, 2-(4-Butoxy-benzenesulfanyl)-octanoic acid hydroxyamide]",–,–,"TACE % inhibition at 1 µM (1 µM, Examples 169-240): 37.9%"
"CCCCCCC(Sc1ccc(OCCN2CCNCC2)cc1)C(=O)NO (centres unmarked) [Example 201, 2-[4-(2-Piperazine-1-yl-ethoxy)-benzenesulfanyl]-octanoic acid hydroxyamide]",–,–,"TACE % inhibition at 1 µM (1 µM, Examples 169-240): 50.9%"
"CCCCCCC(Sc1ccc(OCCCCCO)cc1)C(=O)NO (centres unmarked) [Example 202, 2-[4-(5-Hydroxy-pentyloxy)-phenylsulfanyl]-octanoic acid hydroxyamide]",–,10.6,–
"CCCCCCC(C(=O)NO)[S+]([O-])c1ccc(OCc2ccccc2)cc1 (centres unmarked) [Example 204, 2-(4-Benzyloxy-phenylsulfinyl)-octanoic acid hydroxyamide]",–,7.75,–
"CCCCCCC(C(=O)NO)[S+]([O-])c1ccc(OCCCC)cc1 (centres unmarked) [Example 205, 2-(4-Butoxy-benzenesulfinyl)-octanoic acid hydroxyamide]",–,84,–
"CCCCCCC(C(=O)NO)[S+]([O-])c1ccc(OCCCc2ccccn2)cc1 (centres unmarked) [Example 207, 2-[4-(3-Pyridin-2-yl-propoxy)-benzenesulfinyl]-octanoic acid hydroxyamide]",–,-6.3,–
"CCCCCCC(C(=O)NO)S(=O)(=O)c1ccc(OCc2ccccc2)cc1 (centres unmarked) [Example 208, 2-(4-Benzyloxy-phenylsulfonyl)-octanoic acid hydroxyamide]",–,67.7,–
"CCCCCCC(C(=O)NO)S(=O)(=O)c1ccc(OCCCC)cc1 (centres unmarked) [Example 209, 2-(4-Butoxy-benzenesulfonyl)-octanoic acid hydroxyamide]",–,31.2,–
"CCCCCCC(C(=O)NO)S(=O)(=O)c1ccc(OCCCc2ccccn2)cc1 (centres unmarked) [Example 211, 2-[4-(3-Pyridin-2-yl-propoxy)-benzenesulfonyl]-octanoic acid hydroxyamide]",–,20.7,–
"CCCCCCC(C(=O)NO)[S+]([O-])c1ccc(OC2CCN(C)C2)cc1 (centres unmarked) [Example 215, 2-[4-(1-Methyl-pyrrolidin-3-yloxy)-benzenesulfinyl]-octanoic acid hydroxyamide]",–,60.1,IC50 [3]: 895 nM
"CCCCCCC(C(=O)NO)S(=O)(=O)c1ccc(OC2CCN(C)C2)cc1 (centres unmarked) [Example 218, 2-[4-(1-Methyl-pyrrolidin-3-yloxy)-benzenesulfonyl]-octanoic acid hydroxyamide]",–,68.7,IC50 [3]: 380 nM
"CCCCCCC(C(=O)NO)S(=O)(=O)c1ccc(OC(CC)CC)cc1 (centres unmarked) [Example 219, 2-[4-(1-Ethyl-propoxy)-benzenesulfonyl]-octanoic acid hydroxyamide]",–,7.3,–
"CCCCCCC(C(=O)NO)[S+]([O-])c1ccc(-c2ccc(Cl)cc2)cc1 (centres unmarked) [Example 221, 2-(4'-Chloro-biphenyl-4-sulfinyl)-octanoic acid hydroxyamide]",–,98.9,IC50 [3]: 146 nM
"CCCCCCC(C(=O)NO)[S+]([O-])c1ccc(-c2ccc(Cl)s2)cc1 (centres unmarked) [Example 222, 2-[4-(5-Chloro-thiophen-2-yl)-benzenesulfinyl]-octanoic acid hydroxyamide]",–,89.3,IC50 [3]: 212 nM
"CCCCCCC(C(=O)NO)S(=O)(=O)c1ccc(-c2ccc(Cl)s2)cc1 (centres unmarked) [Example 224, 2-[4-(5-Chloro-thiophen-2-yl)-benzenesulfonyl]-octanoic acid hydroxyamide]",–,75,IC50 [3]: 404 nM
"CCCCCCC(Sc1ccc(NCCCN2CCOCC2)cc1)C(=O)NO (centres unmarked) [Example 225, 2-[4-(3-morpholin-4-yl-propylamino)-phenylsulfanyl]-octanoic acid hydroxyamide]",–,114,IC50 [3]: 96.6 nM

# From patent EP0970046B1, “N-HYDROXY-2-(ALKYL, ARYL, OR HETEROARYL SULFANYL, SULFINYL OR SULFONYL)-3-SUBSTITUTED ALKYL, ARYL OR HETEROARYLAMIDES AS MATRIX METALLOPROTEINASE INHIBITORS” (Wyeth Holdings Corporation, priority 1997, dated 1998)
